Measured values published in publication PMC7530128 (Journal of the American Chemical Society, 2020).

Tests used:
CblD = biological target: T1, CblD (Homo sapiens, UniProt Q9H3L0); assay: UV-visible titration; type: binding
T1 sequence (Q9H3L0 1-296): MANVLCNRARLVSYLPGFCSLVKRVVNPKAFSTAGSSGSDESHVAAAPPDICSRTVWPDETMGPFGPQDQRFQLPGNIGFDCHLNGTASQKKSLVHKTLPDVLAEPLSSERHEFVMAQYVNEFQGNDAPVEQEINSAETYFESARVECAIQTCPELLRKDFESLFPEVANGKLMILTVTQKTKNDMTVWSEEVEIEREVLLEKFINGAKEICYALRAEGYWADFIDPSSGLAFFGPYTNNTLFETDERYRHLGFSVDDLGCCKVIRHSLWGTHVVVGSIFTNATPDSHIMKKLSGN

CblC = biological target: T2, CblC (Homo sapiens, UniProt Q9Y4U1); assay: ITC
T2 chain: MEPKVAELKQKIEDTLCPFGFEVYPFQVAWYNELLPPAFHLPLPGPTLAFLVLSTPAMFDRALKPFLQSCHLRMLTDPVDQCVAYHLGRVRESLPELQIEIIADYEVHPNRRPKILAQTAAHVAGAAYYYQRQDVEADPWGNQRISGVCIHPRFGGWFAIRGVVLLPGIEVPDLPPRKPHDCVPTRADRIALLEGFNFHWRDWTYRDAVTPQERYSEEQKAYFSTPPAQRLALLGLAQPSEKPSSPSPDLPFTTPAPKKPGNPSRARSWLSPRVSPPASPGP

H2OCbl
Kd (CblD): 1000 ± 400 nM

B1: CblD (protein)
chain: SDESHVAAAPPDICSRTVWPDETMGPFGPQDQRFQLPGNIGFDCHLNGTASQKKSLVHKTLPDVLAEPLSSERHEFVMAQYVNEFQGNDAPVEQEINSAETYFESARVECAIQTCPELLRKDFESLFPEVANGKLMILTVTQKTKNDMTVWSEEVEIEREVLLEKFINGAKEICYALRAEGYWADFIDPSSGLAFFGPYTNNTLFETDERYRHLGFSVDDLGCCKVIRHSLWGTHVVVGSIFTNATPDSHIMKKLSGN
modifications: cobalamin
Kd (CblC): 40 nM
